Data on seven compounds can be found in patent US4616025A, “Thiazolidine derivatives, process for the preparation and pharmaceutical compositions thereof” (Richter Gedeon Vegyeszeti Gyar RT, priority 1983, dated 1986).

Data set [1] deals with intestinal ulceration induced by indomethacin. The note with it: literature; cited from earlier work.
The subject of data set [2] is indomethacin-induced non-fatal intestinal ulceration. Nature of the data set: Indomethacin-induced (7.5 mg/kg p.o.) non-fatal intestinal ulceration, post-treatment, inflation technique. Type of data set: in vivo, rat (H-Wistar). The protocol: (§1) To evaluate the development of intestinal ulcers the so-called inflation technique by Ezer and Szporny (J. Pharm. Pharmacol. 27, 866 (1975)) was employed. By this method the progress of ulceration can be monitored quantitatively. The tensile strength of the intestinal wall expressed in mmHg weakens gradually parallel with the progress of ulceration.
(b) Indomethacin-induced non-fatal ulceration
Non-fasted H-Wistar rats weighing 120 to 150 g each were administered 7.5 mg/kg indomethacin orally, to induce non-fatal intestinal ulceration. 4, 24 and 48 hours, respectively, after the indomethacin treatment the animals were treated with the test material orally. The animals were killed 24 hours after the last treatment and 72 hours after the ulcer-induction performed with indomethacin, respectively. Ulceration was evaluated by the inflation technique.

The subject of data set [3] is indomethacin-induced intestinal ulceration. The data set can be described thus: Indomethacin-induced fatal intestinal ulceration (15 mg/kg p.o.), inflation technique. The data set is classed as in vivo, rat (female H-Wistar). The protocol: Indomethacin-induced intestinal ulceration
Of the non-steroidal antiinflammatory agents indomethacin has not only a gastric-ulcer inducing side-effect but may also cause serious intestinal ulceration. Depending on the dose, the intestinal ulceration may be fatal, peritonitis due to intestinal perforations kills the animals.
(a) Indomethacin-induced fatal intestinal ulceration
Non-fasted, female H-Winstar rats, weighing 120-150 g each were treated orally with a 15 mg/kg dose of indomethacin (in Tween 80 suspension). […] Under these conditions it requires about 48 to 72 hours to detect intenstinal ulceration.
as §1

A further data set relates to formation of ulcers. The note with it: cited from earlier work.
In data set [4] the test system is aspirin-induced gastric ulcers. Nature of the data set: Aspirin-induced stomach ulcer. The note with it: Aspirin (control) 100 mg/kg p.o., n=20. The data set is classed as in vivo, rat (female H-Wistar). As for the experimental part: It is known that the non-steroidal antiinflammatory agents induce gastointestinal ulceration to certain extent (Drugs and Peptic Ulcer, Ed. Pfeiffer, CRC Press, New York 1982). To test anti-ulcer compounds the so-called Aspirin-induced ulcer model is widely used. Female H-Wistar rats weighing 120-150 g each were fasted for 24 hours. Water was allowed ad libitum. The stomach ulcer was induced by oral administration of 100 mg/kg Aspirin (in Tween 80 suspension). The test drug was given simultaneously with the administration of Aspirin, orally. The animals were killed by an overdose of ether, 4 hours after treatment. The stomach was excised and cut along the large curvature. The contents were slightly washed and the haemorrhagic lesions in the glandular surface were counted. When evaluating the test results, the number of ulcers per stomach or the ulcer-free animals were determined.

Setting [5] is: indomethacin 15 mg/kg p.o. alone, n=16.
Where [6] appears, read: indomethacin 15 + 25 mg/kg p.o.
[7] abbreviates: indomethacin 15 + 50 mg/kg p.o.

As to `CC(C)[N+](C)(CCOC(=O)C1c2ccccc2Oc2ccccc21)C(C)C` [Propanthelin], in data set [1], the “Indomethacin-induced intestinal ulceration, in words” value was “cannot prevent indomethacin-induced intestinal ulceration”.

`CNC(=C[N+](=O)[O-])NCCSCc1ccc(CN(C)C)o1` [ranitidine]: the “Non-fatal intestinal ulceration post-treatment, in words” value in data set [2] (post-treatment 4, 24 and 48 hours after indomethacin 7.5 mg/kg p.o.) is listed as “ineffective”.

For the compound `COc1ccc2c(c1)c(CC(=O)O)c(C)n2C(=O)c1ccc(Cl)cc1` [Indomethacin, reference compound], in data set [3] (setting [5]), the “Intestinal wall resistency in % of normal” value is listed as 20 % of normal and the “T.s. of intestinal wall 72 hours after treatment” value was 46 ± 12 mm Hg. Moreover, the “T.s. of intestinal wall 72 hours after indomethacin treatment” value in data set [2] (indomethacin 7.5 mg/kg p.o. alone, n=32, group B) was 185 ± 11 mm Hg.

On to `C[N+]1(C)[C@@H]2CC[C@H]1CC(OC(=O)C1c3ccccc3Oc3ccccc31)C2.[Br-]` (stereo partly drawn) [Gastrixon], for which, in data set [1], the “Indomethacin-induced intestinal ulceration, in words” value is reported as “cannot prevent indomethacin-induced intestinal ulceration”.

Regarding `CN1CCN(CC(=O)N2c3ccccc3C(=O)Nc3cccnc32)CC1` [pirenzepine, 5,11-dihydro-11-[(4-methyl-1-piperazinyl)-acetyl]-6H-pyrido[2,3-b][1,4] benzodiazepine-6-one], the “Inhibition of the formation of ulcers, in words” value in the data set with formation of ulcers (compared to atropine) is recorded as “inhibits the formation of ulcers to the same extent as atropine”. Further, in the data set on formation of ulcers (in vivo), the “Other anticholinergic effects (e.g. inhibition of peristalsis, accommodation disturbances of eye, inhibition of salivation)” value was “devoid of other anticholenergic effects”.

Regarding `O=C(O)c1ccccc1O` [Na--salicylate, reference compound], the ED100 in data set [3] (Rattus norvegicus, po) amounted to 50 mg/kg. For the same compound, the “Intestinal wall resistency in % of normal” value in data set [3] (setting [6]) is 57 % of normal; in data set [3] (setting [7]), 100 % of normal. In addition, the “T.s. of intestinal wall 72 hours after treatment” value in data set [3] (setting [6]) was 132 ± 17 mm Hg; in data set [3] (setting [7]), 231 ± 5 mm Hg.

On to `CC(=O)Oc1ccccc1C(=O)O` [Aspirin, reference compound], for which, in data set [4], the Number of ulcers/stomach was 15.7 ± 3.0 and the Ulcer-free animals is reported as 0%.
